Converted amounts (≈) assume the structure as drawn.

One series can be described thus: physchem. In kind it is physicochemical. The protocol: A chemical molecule (compound B) is presented with a low molecular weight. […] The solubility is increased up to 8 mg/ml in PEG200.
A calpain inhibitor (PD 150606) is presented, having a low molecular weight of 306 Da. […] The solubility is increased up to 8 mg/ml in PEG200.

The nature of series [1]: Active loading of pre-formed liposomes (encapsulation efficiency, final product). To be noted: solubilized in pure PEG200 and HPβCD; same pre-formed liposomes (calcium acetate). The format is physicochemical. The protocol: Liposomes may consist of different phospholipids and cholesterol in several molar ratios in order to modify the transition/processing temperature and particle stability in plasma. […] Components are dissolved in ethanol or iso-propanol. Additionally, for the purpose of increasing the (in vivo) particle stability and enhanced brain delivery, micelles consisting of DSPE-PEG-GSH (up to 5 mol %), which is synthesized before preparation of the liposomes using DSPE-PEG-MAL and fresh solutions of reduced glutathione, and/or DSPE-mPEG (Mw 2000) may be added to the solution at different mol-percentages (up to 5-10 mol % in total). The (lipid) mixture is injected in aqueous solutions containing active loading buffer of different ionic strengths (1-1000 mM), e.g. 2 mg/mL ammonium sulfate or 1 mg/mL calcium acetate. After stirring, the formed vesicles are either extruded through membranes or homogenized in an emulsifier to create liposomes of a uniform size. Alternatively, DSPE-PEG-GSH or DSPE-mPEG is added after preparation of the liposomes by incubation at 25° C. up to 60° C. for 2 up to 24 hours (depending on the phase transition temperature of the lipid mixture and the temperature sensitivity of the agent). […]
The compound is measured with UV at 295 nm at concentrations between 5-60 μg/ml. […]

Setting [2] is: pH 7, aqueous with cosolvent or surfactant or cyclodextrin.

Turning to `C[C@@H](Oc1cc(-c2cnn(C3CCNCC3)c2)cnc1N)c1c(Cl)ccc(F)c1Cl` [Crizotinib], the solubility in the series “physchem” (20 °C) was less than 100 µg/mL; in “physchem” (aqueous with cosolvent or surfactant or cyclodextrin) it was 2200 µg/mL (≈ 4890 µM); in “physchem” (setting [2]), not below 5000 µg/mL.
As to `O=C(O)/C(S)=C/c1ccc(I)cc1` [PD 150606], in series [1], the “active loading into pre-formed liposomes” value is “no active loading”. Also, in the series “physchem”, the “solubility in PEG200” value is “up to 8 mg/ml”, the solubility in water result is given as “below 0.05 mg/ml” and the “stability at basic pH” value is “decomposes”.
In the case of `O=C(O)c1cccnc1C(=O)O` [quinolinic acid], the solubility in the series “physchem” (pH 5, aqueous buffer) is 3 µg/mL (≈ 18 µM); in the series “physchem” (pH 6, aqueous buffer), 20 µg/mL (≈ 120 µM); in the series “physchem” (pH 7, aqueous buffer), 350 µg/mL (≈ 2090 µM); in “physchem” (setting [2]) it was not above 2200 µg/mL; in “physchem” (pH 8, aqueous buffer), 900 µg/mL (≈ 5390 µM).

Broadly, the solubility is the concentration that dissolves in the medium under given conditions. A lower solubility goes with a poorly soluble substance.
